Experimental data from patent US11819532B2, “Peptide macrocycles against Acinetobacter baumannii” (Hoffmann-La Roche Inc., priority 2018, dated 2023).

Test system: A. baumannii ATCC 17978
Test: 50% growth inhibitory concentration (IC50) determination, antimicrobial susceptibility testing
Assay type: cell-based
Settings: Acinetobacter baumannii; 50% growth inhibition, A. baumannii strain ATCC17978, Iso-Sensitest medium; read-out: IC50 ATCC17978
Method: The in vitro antimicrobial activity of the compounds was alternatively determined according to the following procedure:
The assay used a 10-points Iso-Sensitest broth medium to measure quantitatively the in vitro activity of the compounds against A. baumannii ATCC 17978.
Stock compounds in DMSO were serially twofold diluted (e.g. range from 50 to 0.097 μM or from 10 to 0.020 μM final concentration) in 384 wells microtiter plates and inoculated with 49 μl the bacterial suspension in Iso-Sensitest medium to have a final cell concentration of ˜5×10^(5)CFU/ml in a final volume/well of 50 μl/well. Microtiter plates were incubated at 35±2° C.
Bacterial cell growth was determined with the measurement of optical density at X=600 nm each 20 minutes over a time course of 16h.
Growth inhibition was calculated during the logarithmic growth of the bacterial cells with determination of the concentration inhibiting 50% (IC50) and 90% (IC90) of the growth.
Table 1 provides the 50% growth inhibitory concentrations (IC50) in micromoles per liter of the compounds of present invention obtained against the A. baumannii strain ATCC17978.

## CN1C(=O)[C@H](CCCCN)NC(=O)[C@H](CCC(N)=O)NCc2cccnc2Sc2c(Cl)ccc(-c3ccc(C(=O)O)cc3)c2CNC(=O)[C@@H]1Cc1c[nH]c2ccccc12 [Example 5.00, 4-[(11S,14S,17S)-14-(4-aminobutyl)-1-(3-amino-3-oxo-propyl)-25-chloro-17-(1H-indol-3-ylmethyl)-16-methyl-12,15,18-trioxo-2-thia-4,10,13,16,19-pentazatricyclo[19.4.0.03,8]pentacosa-1(21), 3,5,7,22,24-hexaen-22-yl]benzoic Acid]
  IC50: 67 nM

## CN1C(=O)[C@H](CCCN)NC(=O)[C@H](CCCN)NCc2cccnc2Sc2cccc(-c3ccc(C(=O)O)cc3)c2CNC(=O)[C@@H]1Cc1c[nH]c2ccccc12 [Example 17.00, 4-[(1 S,14S,17S)-11,14-bis(3-Aminopropyl)-17-(1H-indol-3-ylmethyl)-16-methyl-12,15,18-trioxo-2-thia-4,10,13,16,19-pentazatricyclo[19.4.0.03,8]pentacosa-1(25), 3 (8),4,6,21,23-hexaen-22-yl]benzoic Acid]
  IC50: 75 nM

## CN1C(=O)[C@H](CCCCN)NC(=O)[C@H](CCN)NCc2cccnc2Sc2c(Cl)ccc(-c3ccc(C(=O)O)cc3)c2CNC(=O)[C@@H]1Cc1c[nH]c2ccccc12 [Example 15.00, 4-[(1 S,14S,7S)-14-(4-Aminobutyl)-11-(2-aminoethyl)-25-chloro-17-(1H-indol-3-ylmethyl)-16-methyl-12,15,18-trioxo-2-thia-4,10,13,16,19-pentazatricyclo[19.4.0.03,8]pentacosa-1(25), 3(8), 4,6,21,23-hexaen-22-yl]benzoic Acid]
  IC50: 20 nM

## CN1C(=O)[C@H](CCCN)NC(=O)[C@H](CCCN)NCc2cccnc2Sc2c(F)ccc(-c3ccc(C(=O)O)cc3)c2CNC(=O)[C@@H]1Cc1c[nH]c2ccccc12 [Example 14.00, 4-[(1 S,14S,17S)-11,14-bis(3-Aminopropyl)-25-fluoro-17-(H-indol-3-ylmethyl)-16-methyl-12,15,18-trioxo-2-thia-4,10,13,16,19-pentazatricyclo[19.4.0.03,8]pentacosa-1(25), 3(8), 4,6,21,23-hexaen-22-yl]benzoic Acid]
  IC50: 21 nM

## CN1C(=O)[C@H](CCCCN)NC(=O)[C@H](CCCN)NCc2cccnc2Sc2c(F)ccc(-c3ccn(/C=C/C(=O)O)c(=O)c3)c2CNC(=O)[C@@H]1Cc1c[nH]c2ccccc12 [Example 9.02, (E)-3-[4-[(11S,14S,17S)-14-(4-Aminobutyl)-11-(3-aminopropyl)-25-fluoro-17-(1H-indol-3-ylmethyl)-16-methyl-12,15,18-trioxo-2-thia-4,10,13,16,19-pentazatricyclo[19.4.0.03,8]pentacosa-1(25),3(8),4,6,21,23-hexaen-22-yl]-2-oxo-1-pyridyl]prop-2-enoic acid]
  IC50: 88 nM

## CN1C(=O)[C@H](CCCCN)NC(=O)[C@H](CCCN)NCc2nccnc2Sc2c(Cl)ccc(-c3ccc(C(=O)O)cc3)c2CNC(=O)[C@@H]1Cc1c[nH]c2ccccc12 [Example 8.00, 4-[(11S,14S,17S)-14-(4-Aminobutyl)-11-(3-aminopropyl)-25-chloro-17-(1H-indol-3-ylmethyl)-16-methyl-12,15,18-trioxo-2-thia-4,7,10,13,16,19-hexazatricyclo[19.4.0.03,8]pentacosa-1(21), 3,5,7,22,24-hexaen-22-yl]benzoic Acid]
  IC50: 20 nM

## CN1C(=O)[C@H](CCCN)NC(=O)[C@H](CCCN)NCc2cccnc2Sc2c(Cl)ccc(-c3ccc(C(=O)O)cc3)c2CNC(=O)[C@@H]1Cc1c[nH]c2ccccc12 [Example 12.00, 4-[(11S,14S,17S)-11,14-bis(3-Aminopropyl)-25-chloro-17-(1H-indol-3-ylmethyl)-16-methyl-12,15,18-trioxo-2-thia-4,10,13,16,19-pentazatricyclo[19.4.0.03,8]pentacosa-1(21), 3,5,7,22,24-hexaen-22-yl]benzoic Acid]
  IC50: 19 nM

## CN1C(=O)[C@H](CCCCN)NC(=O)[C@H](CCCN)NCc2cccnc2Sc2c(Cl)ccc(-c3ccc(C(=O)O)c(O)c3)c2CNC(=O)[C@@H]1Cc1c[nH]c2ccccc12 [Example 3.00, 4-[(1 S,14S,17S)-14-(4-Aminobutyl)-1-(3-aminopropyl)-25-chloro-17-(1H-indol-3-ylmethyl)-16-methyl-12,15,18-trioxo-2-thia-4,10,13,16,19-pentazatricyclo[19.4.0.03,8]pentacosa-1(21), 3(8), 4,6,22,24-hexaen-22-yl]-2-hydroxy-benzoic Acid]
  IC50: 39 nM

## Cc1[nH]c2ccccc2c1C[C@H]1C(=O)NCc2c(-c3ccc(C(=O)O)cc3)ccc(Cl)c2Sc2ncccc2CN[C@@H](CCCN)C(=O)N[C@@H](CCCCN)C(=O)N1C [Example 7.00, 4-[(11S,14S,17S)-14-(4-Aminobutyl)-11-(3-aminopropyl)-25-chloro-16-methyl-17-[(2-methyl-1H-indol-3-yl)methyl]-12,15,18-trioxo-2-thia-4,10,13,16,19-pentazatricyclo[19.4.0.03,8]pentacosa-1(25), 3,5,7,21,23-hexaen-22-yl]benzoic Acid]
  IC50: 28 nM

## CN1C(=O)[C@H](CCCCN)NC(=O)[C@H](CCCN)NCc2cccnc2Sc2c(Cl)ccc(-c3ccc(C(=O)O)nc3)c2CNC(=O)[C@@H]1Cc1c[nH]c2ccccc12 [Example 2.02, 5-[(11S,14S,17S)-14-(4-aminobutyl)-11-(3-aminopropyl)-25-chloro-17-(1H-indo1-3-ylmethyl)-16-methyl-12,15,18-trioxo-2-thia-4,10,13,16,19-pentazatricyclo[19.4.0.03,8]pentacosa-1(25),3,5,7,21,23-hexaen-22-yl]pyridine-2-carboxylic acid]
  IC50: 29 nM

## CN1C(=O)[C@H](CCC(F)(F)CN)NC(=O)[C@H](CCCN)NCc2cccnc2Sc2c(Cl)ccc(-c3ccc(C(=O)O)cc3)c2CNC(=O)[C@@H]1Cc1c[nH]c2ccccc12 [Example 4.00, 4-[(11S,14S,17S)-14-(4-Amino-3,3-difluoro-butyl)-11-(3-aminopropyl)-25-chloro-17-(1H-indol-3-ylmethyl)-16-methyl-12,15,18-trioxo-2-thia-4,10,13,16,19-pentazatricyclo[19.4.0.03,8]pentacosa-1(21), 3,5,7,22,24-hexaen-22-yl]benzoic Acid]
  IC50: 19 nM

## CN1C(=O)[C@H](CCN)NC(=O)[C@H](CCCN)NCc2cccnc2Sc2c(Cl)ccc(-c3ccc(C(=O)O)cc3)c2CNC(=O)[C@@H]1Cc1c[nH]c2ccccc12 [Example 13.00, 4-[(11S,14S,17S)-14-(2-Aminoethyl)-11-(3-aminopropyl)-25-chloro-17-(1H-indol-3-ylmethyl)-16-methyl-12,15,18-trioxo-2-thia-4,10,13,16,19-pentazatricyclo[19.4.0.03,8]pentacosa-1(25), 3(8), 4,6,21,23-hexaen-22-yl]benzoic Acid]
  IC50: 20 nM

## CN1C(=O)[C@H](CCCN)NC(=O)[C@H](CCN)NCc2cccnc2Sc2c(Cl)ccc(-c3ccc(C(=O)O)cc3)c2CNC(=O)[C@@H]1Cc1c[nH]c2ccccc12 [Example 16.00, 4-[(11S,14S,17S)-11-(2-Aminoethyl)-14-(3-aminopropyl)-25-chloro-17-(1H-indol-3-ylmethyl)-16-methyl-12,15,18-trioxo-2-thia-4,10,13,16,19-pentazatricyclo[19.4.0.03,8]pentacosa-1(25), 3(8), 4,6,21,23-hexaen-22-yl]benzoic Acid]
  IC50: 20 nM
